Measured values reported in paper PMC2784364, “VX-166: a novel potent small molecule caspase inhibitor as a potential therapy for sepsis” (Critical Care, 2009).
“Also recorded” adds a separate entry of the source. Where two headings read alike, the source gives them in different places.

Tests used:
[1] = target: T1, caspase-2 (Homo sapiens, UniProt P42575); test: Caspase inhibition assay, second-order inactivation rate; type: biochemical
T1 construct: purchased Biomol (Exeter, UK)
Protocol: (§1) Active recombinant caspase-1, -3, -4, -7 and -8 were prepared as described previously. Caspase-2 was purchased from Biomol (Exeter, UK), caspase-6 from BD Biosciences (Oxford, UK), caspase-9 from Europa Bioproducts Ltd. (Cambridge, UK) and caspase-10 from Chemicon International Inc. (Harrow, UK). Cathepsin B and granzyme B were purchased from Merck Biosciences Ltd. (Nottingham, UK). Fluorogenic protease substrates were purchased from Bachem Ltd. (St. Helens, UK). All reactions were carried out at 37°C using a Molecular Devices (Wokingham, UK) Gemini plate-reader at 460 nm (excitation wavelength of 390 nm). Caspase inhibition assays were conducted, with minor modifications, as described by Margolin and colleagues. Irreversible kinetics were analysed by calculations of second-order inactivation rate constants (k) using GraphPad (La Jolla, CA, USA) Prism 4.0 software. A larger number for an inactivation rate constant indicates a greater degree of inactivation. To determine the inhibitory effect on cathepsin B, 4.25 nM of the enzyme were added to 250 μM z-RR-AMC in 10 mM 2-morpholino-ethanesulfonic acid pH 6.0, 1 mM DTT, 1 mM EDTA and 0.03% Brij35 in the presence or absence of VX-166 and the reaction monitored continuously over 15 minutes. Granzyme B was assayed, with minor modifications, as described by Thornberry and colleagues. Additional counterscreening against a panel of 83 additional enzymes, ion channels and receptors was carried out at MDS Pharma Services (Bothell, WA, USA).

[2] = target: T2, cathepsin B (Homo sapiens, UniProt P07858); test: Cathepsin B counter-screen; type: biochemical; conditions: highest concentration tested
T2 construct: purchased Merck Biosciences Ltd. (Nottingham, UK)
Protocol: as §1, with “Additional counterscreening against a panel of 83 additional enzymes, ion channels and receptors was carried out at MDS Pharma Services (Bothell, WA, USA).” left out

[3] = test system: PBMC; test: PBMC viability (MTS assay); type: cell-based, human; conditions: MTS assay conducted simultaneously with cytokine release assays
Protocol: Peripheral blood mononuclear cells (PBMC) from healthy donors were isolated by Ficoll-Paque gradient centrifugation from buffy coats obtained from the National Blood Transfusion Service (Bristol, UK). For IL-1β release, 5 × 10^5 cells/ml were then stimulated with 50 ng/ml lipopolysaccharide (LPS) from Escherichia coli (Sigma-Aldrich Ltd., Poole, UK) in the presence or absence of VX-166 and incubated for 18 hours. Secretion of IL-1β into the supernatant was determined by ELISA (R&D Systems, Abingdon, UK) following the manufacturer's instructions. For IL-18 release, 7.5 × 10^5 cells/ml were stimulated with 6.25 × 10^-4% (w/v) Staphylococcus aureus cell suspension (SAC; Sigma-Aldrich Ltd., Poole, UK) in the presence or absence of VX-166 and incubated overnight. The IL-18 content in the supernatants was quantified by ELISA (Caltag-MedSystems Ltd., Buckingham, UK) following the manufacturer's instructions. In both assays PBMC viability was assessed after the 18 hours incubation time using MTS assay (Promega UK Ltd., Southampton, UK) to ensure that the reduction in cytokine release was not caused by a cytotoxic effect of the compound.

[4] = test system: IL-2 release from peripheral blood mononuclear cells; test: IL-2 release from anti-CD3/CD28 stimulated PBMC; type: cell-based, human; conditions: at 100 μM
Protocol: PBMC from healthy donors were isolated as described above. To the wells of a 96-well plate previously coated with 1.5 μg/ml anti-hCD3 (Serotec, Kidlington, UK), 5 × 10^5 cells/ml and 1 μg/ml anti-hCD28 (BD Biosciences, Oxford, UK) were added. Plates were then incubated for 24 hours in the presence or absence of VX-166 or the calcineurin inhibitor FK506 (Merck Biosciences Ltd., Nottingham, UK). IL-2 release into the supernatant was subsequently determined by ELISA (R&D Systems, Abingdon, UK) following the manufacturer's instructions.

[5] = CLP rat, plasma endotoxin by LAL kit; type: in vivo; conditions: 20 hours, 25 mg/ml pump, n = 10, P < 0.05
Protocol: CLP studies were performed in accordance with the National Institutes of Health guidelines for the use of experimental animals and were approved by the Institutional Animal Care and Use Committee of the Feinstein Institute for Medical Research. Adult male Sprague-Dawley rats (weighing 275 to 325 g, Charles River Laboratories, Wilmington, MA, USA) were fasted overnight then anaesthetised with isoflurane. The caecum was exposed via a 2 cm midline incision. It was ligated just distal to the ileocaecal valve, then punctured twice with an 18-gauge needle and gently squeezed to release a small amount of faecal material to ensure patency of the perforation sites before the abdominal incision was closed. Sham-operated rats underwent the same procedure with the exception that the caecum was neither ligated nor punctured. […]
Blood samples were centrifuged at 1500 g for 15 minutes at 4°C, the plasma was removed and stored at -80°C until analysis. Plasma IL-1β levels were determined by ELISA (R&D Systems Inc., Minneapolis, MN, USA) following the manufacturer's instructions. Plasma endotoxin levels were determined using a Limulus amebocyte lysate (LAL) kit (Associates of Cape Cod, Inc., East Falmouth, MA, USA) according to the manufacturer's instruction. […] The optical density was determined at 405 nm using a spectrophotometer. The levels of endotoxin were then calculated and expressed as EU/ml.

T1 sequence (P42575 whole entry): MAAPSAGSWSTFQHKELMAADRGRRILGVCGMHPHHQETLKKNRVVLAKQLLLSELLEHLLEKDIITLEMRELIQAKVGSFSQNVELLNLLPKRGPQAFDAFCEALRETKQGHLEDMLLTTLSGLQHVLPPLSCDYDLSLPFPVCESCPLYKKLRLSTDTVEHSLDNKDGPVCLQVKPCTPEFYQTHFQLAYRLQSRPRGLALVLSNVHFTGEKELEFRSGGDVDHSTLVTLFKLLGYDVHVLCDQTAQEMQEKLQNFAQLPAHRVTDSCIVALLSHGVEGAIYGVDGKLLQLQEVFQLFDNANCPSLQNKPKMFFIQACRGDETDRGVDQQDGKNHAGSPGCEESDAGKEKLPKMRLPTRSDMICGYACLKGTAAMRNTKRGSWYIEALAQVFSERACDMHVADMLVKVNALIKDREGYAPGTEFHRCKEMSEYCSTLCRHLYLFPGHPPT

CCC(C(=O)NC(CC(=O)O)C(=O)COc1c(F)c(F)cc(F)c1F)n1cccc(NC(=O)OC)c1=O (stereo not drawn) [VX-166]
kinact/KI ([1]; caspase-2, text, read-out: second order inactivation rate constant (k)): 6000 M⁻¹ s⁻¹
kinact/KI ([1]; read-out: Second order inactivation rate constant K): 6190 ± 510 M⁻¹ s⁻¹
inhibition at 50 µM [2]: 19%
cytotoxic effect in PBMC viability assay [3]: not due to a cytotoxic effect
inhibition of T-cell activation in vitro [4]: partial inhibition
plasma endotoxin level vs vehicle CLP [5]: reduced plasma endotoxin levels; also recorded: reduced the level of endotoxin
